Source: patent US10085958B2, “Bromfenac bioavailability” (BAUSCH & LOMB PHARMA HOLDINGS CORP., priority 2011, dated 2018)
Several values for one entry are separate records, joined by “and”; a condition that tells them apart may be missing. Identical values can stand only once. Like-named read-outs stand apart in the source and are kept apart here.

Experiments:
[1] = Twenty-four hour ocular pharmacokinetics of ^14C-labeled bromfenac following topical instillation; assay type: in vivo, New Zealand White rabbit
Protocol: Twenty-four hour ocular pharmacokinetics of a formulation of ^14C-labeled bromfenac following topical instillation in New Zealand White rabbit eyes was evaluated. ^14C-labeled bromfenac was analyzed to verify the radioactive purity prior to use. Dosing solutions were prepared and analyzed after dosing to confirm the radiochemical purity of the dosing solution. The radioactive concentration of the dosing solutions was calculated by liquid scintillation counting (LSC). Treatment parameters are summarized below:
On Day 1, 50 μL of the dosing solution was topically instilled into both eyes of each animal. Animals were weighed at randomization and prior to dosing on Day 1. Animals were euthanized by an intravenous injection of a commercial euthanasia solution at 1 hour±5 minutes, 2 hours±15 minutes, 4 hours±15 minutes, 8 hours±15 minutes, 12 hours±15 minutes, or 24 hours±15 minutes following dosing. After euthanasia, each eye was rinsed with normal saline. Aqueous humor was collected from both eyes and the weight was recorded. The globes were enucleated and frozen in liquid nitrogen. The globes were stored at ≤−70° C. prior to dissection. The iris/ciliary body, lens, vitreous, retina, choroid, sclera, conjunctiva, and cornea were collected from each eye, weighed, and stored at ≤−15° C. prior to analysis. Aqueous humor samples were stored at ≤−15° C. until analyzed.
All radioactivity measurements were performed using a Beckman Liquid Scintillation Spectrometer. The iris/ciliary body, lens, retina, choroid, sclera, conjunctiva, and cornea from each eye were weighed into combustion cones and combusted. Duplicate aliquots of each aqueous humor sample and each vitreous humor sample were transferred to LSC vials using Insta-Gel as the scintillation fluid and the amount of radioactivity was determined.
The dosing solution was prepared by weighing 2.41 mg of ^14C-labeled bromfenac sodium and dissolving into 3 mL diluent to achieve a non-radioactive concentration of 0.7 mg/mL (0.07% w/v) bromfenac free acid, a radioactive concentration of 129.7 μCi/mL, and a pH of 7.8.
On Day 1, 50 μL of the dosing solution was topically instilled into both eyes of each animal. The dosing solution was instilled into the conjunctival sac using a calibrated pipette, and the eyelid was held closed for 5-10 seconds following the dose. Any dosing solution found at the margin of the eyelid after dosing was recovered with a Lasik spear. The time of each dose administration was recorded.
Animals were euthanized by an intravenous injection of a commercial euthanasia solution at 1 hour±5 minutes, 2 hours±15 minutes, 4 hours±15 minutes, 8 hours±15 minutes, 12 hours±15 minutes, or 24 hours±15 minutes following dosing.
After euthanasia, each eye was rinsed with normal saline. Aqueous humor was collected from both eyes and the weight was recorded. The globes were enucleated and frozen in liquid nitrogen. The globes were stored at ≤−70° C. prior to dissection. The iris/ciliary body, lens, vitreous, retina, choroid, sclera, conjunctiva, and cornea were collected from each eye, weighed, and stored at ≤−15° C. prior to analysis. The start time of necropsy was recorded. Aqueous humor samples were stored at ≤−15° C. until analyzed.
The iris/ciliary body, lens, retina, choroid, sclera, conjunctiva, and cornea from each eye were weighed into combustion cones and combusted with the exception of the left eye from Animal No. 731. The retina, choroid, and cornea from this eye were lost during processing and could not be recovered. No radioactivity data is available for these tissues.
Combusted samples were trapped in […] (RJ Harvey) present in LSC vials and the amount of radioactivity determined by LSC. Duplicate aliquots of each aqueous humor sample (approximately 25 μL) were transferred to LSC vials and the amount of radioactivity was determined by LSC using Insta-Gel as the scintillation fluid. […]

[2] = assay type: in vivo; conditions: for Mortality/Morbidity: animals found dead or euthanized prior to scheduled euthanasia/number in group
[3] = Group A, 1 hr. post-dose, 0.07% pH 7.8, 50 μL per eye topical
[4] = Group B, 2 hr. post-dose, 0.07% pH 7.8, 50 μL per eye topical
[5] = Group C, 4 hr. post-dose, 0.07% pH 7.8, 50 μL per eye topical
[6] = Group D, 8 hr. post-dose, 0.07% pH 7.8, 50 μL per eye topical

Nc1c(CC(=O)O)cccc1C(=O)c1ccc(Br)cc1 [^14C-labeled Bromfenac]
Radioactivity detected by LSC in the lens and the vitreous humor ([1]; 24 hour study period): very low and close to background values | Radioactive residues, Total of eye tissues, Mean [1, 3]: 1.187 Percent Dose | Radioactive residues, Total of eye tissues, single eyes OD/OS [1, 3]: 0.954 Percent Dose and 1.172 Percent Dose and 1.011 Percent Dose and 1.423 Percent Dose and 1.185 Percent Dose and 1.374 Percent Dose | Radioactive residues, Total of eye tissues, Mean [1, 4]: 0.867 Percent Dose | Radioactive residues, Total of eye tissues, single eyes OD/OS [1, 4]: 0.923 Percent Dose and 0.762 Percent Dose and 0.782 Percent Dose and 1.246 Percent Dose and 0.725 Percent Dose and 0.761 Percent Dose | Radioactive residues in Conjunctiva, Mean [1, 5]: 0.142 Percent Dose | Radioactive residues, Total of eye tissues, Mean [1, 5]: 0.550 Percent Dose | Radioactive residues in Cornea, Mean [1, 6]: 0.471 ppm (μg-eq/g) | Radioactive residues, Total of eye tissues, Mean [1, 6]: 0.228 Percent Dose | Radioactive residues, Total of eye tissues, Mean ([1]; Group E, 12 hr. post-dose, 0.07% pH 7.8, 50 μL per eye topical): 0.107 Percent Dose | Radioactive residues, Total of eye tissues, Mean ([1]; Group F, 24 hr. post-dose, 0.07% pH 7.8, 50 μL per eye topical): 0.034 Percent Dose | Tissues with the highest concentrations of drug-derived radioactivity ([1]; mean ppm (μg/g), 24 hour study period): cornea, conjunctiva, and sclera | Mortality/Morbidity ([2]; Group A, necropsy 1 hour post-dose): 0/3 | Mortality/Morbidity ([2]; Group B, necropsy 2 hours post-dose): 0/3 | Mortality/Morbidity ([2]; Group C, necropsy 4 hours post-dose): 0/3 | Mortality/Morbidity ([2]; Group D, necropsy 8 hours post-dose): 0/3 | Mortality/Morbidity ([2]; Group E, necropsy 12 hours post-dose): 0/3 | Mortality/Morbidity ([2]; Group F, necropsy 24 hours post-dose): 0/3 | Mortality, whole study ([2]; all groups, up to 24 hours after 50 μL 0.07% per eye): no mortality
